Laboratory results taken from publication PMC6461236, “The three dimensional structure of Bovine Salivary Protein 30b (BSP30b) and its interaction with specific rumen bacteria” (PLoS ONE, 2019).

Molecular target: T1, BSP30b (Bovine Salivary Protein 30b) (Bos taurus, UniProt P79125)
T1 construct: gene SPLUNC2B; E. coli BL21, pProEx Htb (BamHI/XhoI), HiTrap Ni, MONO Q and SEC purified; synthetic F61M/F115M double mutant; model covers about residues 40-235
T1 sequence (P79125 20-240): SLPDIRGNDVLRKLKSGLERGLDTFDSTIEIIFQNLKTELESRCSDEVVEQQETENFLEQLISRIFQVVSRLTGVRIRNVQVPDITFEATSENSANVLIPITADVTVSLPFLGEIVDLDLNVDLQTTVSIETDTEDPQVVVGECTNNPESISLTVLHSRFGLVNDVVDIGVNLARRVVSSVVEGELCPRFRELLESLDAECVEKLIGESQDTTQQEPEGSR
Experiment: X-ray co-crystal structure, […] Å
Format: binding
Details: co-crystallised at pH 7.5 after SEC removal of unbound ligand; in hydrophobic channel, about 80% occupancy in dominant site, weaker in second molecule of ASU; contacts ASP112 and ILE113

CCCCCCCC/C=C\CCCCCCCC(=O)O [oleic acid]
X-ray co-crystal structure, 2.30 Å: The only structure that revealed elongated stretches of electron density within the hydrophobic tunnel
